Series [1] has as its target CYP2C19 (Homo sapiens, UniProt P33261). In words: Inhibition of human cytochrome P450 CYP2C19. Type of series: in vitro ADME. The note with it: human cytochrome P450 enzyme. From the text:
The epoxidation of arachidonic acid (AA) by selected cytochrome P450 epoxygenases generates epoxyeicosatrienoic acids (EETs). These EETs show anti-inflammatory, antihypertensive, analgesic, angiogenic, and antiatherosclerotic effects in rodents and humans. sEH converts EETs to their corresponding dihydroxyeicosatrienoic acids (DHETs), whereby the biological effects of EETs are diminished, eliminated, or altered. Among the P450 enzymes, it is known that CYP2C19 and CYP1A2 have the highest formation rate of EETs from AA (cf. A. A. El-Sherbeni et al. “Repurposing resveratrol and fluconazole to modulate human cytrochrome P450-mediated arachidonic acid metabolites”, Molecular Pharmaceutics 2016, vol. 13, pp. 1278-1288). For this reason, a highly desirable aspect of any new sEH inhibitor is selectivity in front of CYP2C19 and CYP1A2.

Series [2] can be described thus: Determination of water solubility (nephelometry). Type of series: physicochemical. The note with it: aqueous with cosolvent or surfactant or cyclodextrin, kinetic from dmso stock; 5% DMSO: 95% PBS buffer, 37° C., read after 2 and 4 h; read-out: S (solubility).
Series [3] is described as follows: Determination of cytotoxicity in THLE-2 cells (ATP viability). It is filed as cell-based. The note with it: human; THLE-2 cells, 72 h exposure, 0-100 μM; read-out: LC50 (μM), cytotoxicity. Here is the method: Cytotoxic effects of assayed compounds were tested using the immortalized human liver cell line THLE-2 (ATCC CRL-2706). Cells were cultured in BEGM medium (Clonetics # CC-4175) containing all the supplements kit except additional EGF and G418. Medium was completed by adding 0.7 μg/mL phosphoethanolamine, 0.5 ng/mL epidermal growth factor, antibiotics (penicillin and streptomycin) and 10% fetal bovine serum (FBS).
Cells were plated in 96-well black microplates at 10,000 cells/well density and were incubated at 37° C. (5% CO2, 95% humidity) for 24 h to allow the cells to adhere and form a monolayer. Test compounds were solubilized in 100% DMSO at a concentration curve way and then diluted with cell culture medium containing 10% DMSO. The final concentrations of the test compounds (1% DMSO) ranged from 0-100 μM in a final volume of 200 μL. Microplates were maintained at 37° C. (5% CO2, 95% humidity) during 3 days. Following this 72 h exposure to test compounds, cell viability in each well was determined by measuring the concentration of cellular adenosine triphosphate (ATP) using the ATP1Step Kit as described by the manufacturer (Perkin-Elmer). In a typical procedure, 50 μL of cell reagent is added to all wells of each test plate followed by incubation for 10 min at room temperature on an orbital shaker. ATP concentration was determined by reading chemical luminescence using the Envision plate reader (PerkinElmer). The percentage of viable cells relative to the non-drug treated controls was determined for each well and LC50 values were calculated as concentrations projected to kill 50% of the cells following a 72 h exposure, an average of minimum two independent replicates.

The target of series [4] is T1, recombinant human sEH (Homo sapiens, UniProt P34913).
T1 construct: purchased Cayman Chemical 10011669
T1 sequence (P34913 1-555): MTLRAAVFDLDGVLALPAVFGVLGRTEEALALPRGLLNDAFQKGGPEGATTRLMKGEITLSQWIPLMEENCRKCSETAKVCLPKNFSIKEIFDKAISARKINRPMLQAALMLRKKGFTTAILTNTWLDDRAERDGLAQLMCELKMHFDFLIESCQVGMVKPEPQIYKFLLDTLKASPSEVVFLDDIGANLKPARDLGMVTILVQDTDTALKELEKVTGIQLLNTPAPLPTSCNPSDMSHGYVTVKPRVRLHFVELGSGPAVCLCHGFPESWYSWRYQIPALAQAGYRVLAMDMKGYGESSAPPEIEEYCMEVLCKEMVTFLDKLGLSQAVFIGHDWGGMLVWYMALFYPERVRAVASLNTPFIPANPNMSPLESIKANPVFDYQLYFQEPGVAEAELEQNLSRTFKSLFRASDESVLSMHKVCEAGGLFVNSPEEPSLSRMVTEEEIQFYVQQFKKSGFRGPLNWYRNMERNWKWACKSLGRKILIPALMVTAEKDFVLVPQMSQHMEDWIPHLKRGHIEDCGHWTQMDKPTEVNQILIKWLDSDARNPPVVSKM
In words: In vitro determination of sEH inhibition activity (fluorescent assay, PHOME substrate). It is filed as biochemical. The note with it: mean ± Standard Error, min. three replicates, read-out: IC50 (nM) ± SE, sEH inhibition activity. The protocol:
3-(Phenyl-oxiranyl)-acetic acid cyano-(6-methoxy-naphthalen-2-yl)-methyl ester (PHOME; from Cayman Chemical, item number 10009134; CAS 1028430-42-3); cf. N. M. Wolf et al., Anal. Biochem. 2006, vol. 355, pp. 71-80.
Solutions: • Assay buffer: Bis/Tris HCl 25 mM pH 7.0 containing 0.1 mg/mL of bovine serum albumin (BSA). • PHOME at 200 μM in DMSO. • Solution of recombinant human sEH (Cayman Chemical, item number 10011669), diluted with assay buffer. • Inhibitors dissolved in DMSO at appropriated concentrations.
In a black 96-well plate (Greiner Bio-One, item number 655900), fill the background wells with 90 μL and the positive control and inhibitor wells with 85 μL of assay buffer. Add 5 μL of DMSO to background and positive control wells, and then add 5 μL of inhibitor solution in inhibitor wells. Add 5 μL of the solution of hsEH to the positive control and inhibitor wells and mix several time. Prepare a 1/21 dilution of the solution of PHOME with assay buffer according to final volume required, and then add 105 μL of each well. Shake carefully the plate for 10 seconds and incubate for 5 minutes at room temperature. […] Results were obtained by regression analysis from at least three data points in a linear region of the curve. IC50 values are average of minimum three independent replicates.

Some results are limits rather than exact numbers.

The values that follow come from US20200079786A1, “ANALOGS OF […] AS SOLUBLE EPOXIDE HYDROLASE INHIBITORS” (UNIVERSITAT DE BARCELONA, priority 2015, published 2020).

Sequence of CYP2C19 (P33261 whole entry): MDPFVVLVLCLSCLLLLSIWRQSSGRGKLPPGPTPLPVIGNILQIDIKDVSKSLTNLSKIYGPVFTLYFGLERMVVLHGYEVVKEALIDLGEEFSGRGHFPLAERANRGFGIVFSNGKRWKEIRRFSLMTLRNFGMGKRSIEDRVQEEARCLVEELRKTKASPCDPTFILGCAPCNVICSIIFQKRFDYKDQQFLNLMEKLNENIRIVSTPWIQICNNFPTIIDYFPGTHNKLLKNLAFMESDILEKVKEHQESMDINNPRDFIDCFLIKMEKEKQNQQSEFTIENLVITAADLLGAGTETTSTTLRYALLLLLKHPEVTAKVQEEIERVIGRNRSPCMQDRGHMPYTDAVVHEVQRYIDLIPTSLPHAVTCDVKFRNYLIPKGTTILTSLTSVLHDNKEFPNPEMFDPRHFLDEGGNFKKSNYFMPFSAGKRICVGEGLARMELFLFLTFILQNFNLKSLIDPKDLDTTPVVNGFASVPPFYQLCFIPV

In general, inhibition refers to the share of the control response that was lost under treatment. A lower inhibition goes with a response near the control. As a reminder, the solubility is the dissolved amount per volume that the medium holds. What is called IC50 is the concentration that gives 50% inhibition. For `O=C(N[C@]12CC3C[C@@H](C[C@H](C3)O1)C2)N[C@H]1CC[C@H](Oc2ccc(C(=O)O)cc2)CC1` [Ig, trans-1-(2-oxaadamantan-1-yl)-3-[4-(4-carboxyphenoxy)cyclohexyl]urea], the inhibition at 1 µM in series [1] is at most 6%. For the same compound, the solubility in series [2] is over 100 µM. In addition, the CC50 at 72 h in series [3] was over 100 µM. Also, the IC50 in series [4] amounted to 13.4 ± 4 nM.
